According to US20080153850A1, “Adamantyl Derivates as P2x7 Receptor Antagonists” (AstraZeneca AB, priority 2004, published 2008):

Compound `O=C(O)COc1cccnc1-c1ccc(Cl)c(C(=O)NCC23CC4CC(CC(C4)C2)C3)c1` [Example 46, [[2-[4-Chloro-3-[[(tricyclo[3.3.1.1^3,7]dec-1-ylmethyl)amino]carbonyl]phenyl]-3-pyridinyl]oxy]-acetic acid] has a melting point of 133 to 137 °C. With `O=C(NCC12CC3CC(CC(C3)C1)C2)c1cc(-c2cc(F)ccc2C(=O)O)ccc1Cl` [Example 36, 4′-Chloro-5-fluoro-3′-[[(tricyclo[3.3.1.1^3,7]dec-1-ylmethyl)amino]carbonyl]-[1,1′-biphenyl]-2-carboxylic acid] the melting point was 120 to 124 °C. `Cc1ccnc(-c2ccc(Cl)c(C(=O)NCC34CC5CC(CC(C5)C3)C4)c2)c1C(=O)O` [Example 53, 2-[4-Chloro-3-[[(tricyclo[3.3.1.1^3,7]dec-1-ylmethyl)amino]carbonyl]phenyl]-4-methyl-3-pyridinecarboxylic acid] gave a melting point of 177 to 180 °C. In the case of `Cc1ccc(-c2cccnc2N2CCC(C(=O)O)CC2)cc1C(=O)NCC12CC3CC(CC(C3)C1)C2` [Example 68, 1-[3-[4-Methyl-3-[[(tricyclo[3.3.1.1^3,7]dec-1-ylmethyl)amino]carbonyl]phenyl]-2-pyridinyl]-4-piperidinecarboxylic acid], the melting point is reported as 60 °C. With `COc1ccc(-c2ccc(Cl)c(C(=O)NCC34CC5CC(CC(C5)C3)C4)c2)c(C(=O)O)c1` [Example 30, 4′-Chloro-4-methoxy-3′-[[(tricyclo[3.3.1.1^3,7]dec-1-ylmethyl)amino]carbonyl]-[1,1′-biphenyl]-2-carboxylic acid] the melting point was 219 to 221 °C. With `N#CNc1nccnc1-c1ccc(Cl)c(C(=O)NCC23CC4CC(CC(C4)C2)C3)c1` [Example 5, 2-Chloro-5-[3-(cyanamino)pyrazinyl]-N-(tricyclo[3.3.1.1^3,7]dec-1-ylmethyl)-benzamide] the melting point was 110 to 115 °C (dec.). With `O=C(O)COc1cccc(-c2ccc(Cl)c(C(=O)NCC34CC5CC(CC(C5)C3)C4)c2)c1` [Example 38, [[4′-Chloro-3′-[[(tricyclo[3.3.1.1^3,7]dec-1-ylmethyl)amino]carbonyl][1,1′-biphenyl]-3-yl]oxy]-acetic acid] the melting point was 99 to 101 °C. `O=C(NCCC12CC3CC(CC(C3)C1)C2)c1cc(-c2cccnc2C(=O)O)ccc1Cl` [Example 50, 3-[4-Chloro-3-[[(2-tricyclo[3.3.1.1^3,7]dec-1-ylethyl)amino]carbonyl]phenyl]-2-pyridinecarboxylic acid] showed a melting point of 108 to 111 °C. Compound `Cc1ccc(-c2ccc(Cl)c(C(=O)NCC34CC5CC(CC(C5)C3)C4)c2)c(C(=O)O)c1` [Example 24, 4′-Chloro-4-methyl-3′-[[(tricyclo[3.3.1.1^3,7]dec-1-ylmethyl)amino]carbonyl]-[1,1′-biphenyl]-2-carboxylic acid] has a melting point of 214 to 216 °C. Compound `O=C(NCC12CC3CC(CC(C3)C1)C2)c1cc(-c2cccnc2N2CCC[C@H]2C(=O)O)ccc1Cl` [Example 60, 1-[3-[4-Chloro-3-[[(tricyclo[3.3.1.1^3,7]dec-1-ylmethyl)amino]carbonyl]phenyl]-2-pyridinyl]-L-proline] has a melting point of 121 to 125 °C. For `O=C(NCC12CC3CC(CC(C3)C1)C2)c1cc(-c2ccccc2C(=O)O)ccc1Cl` [Example 3, 4′-Chloro-3′-[[(tricyclo[3.3.1.1^3,7]dec-1-ylmethyl)amino]carbonyl]-[1,1′-biphenyl]-2-carboxylic acid], the melting point was 228 to 230 °C. In the case of `O=C(O)c1coc(-c2ccc(Cl)c(C(=O)NCC34CC5CC(CC(C5)C3)C4)c2)n1` [Example 23, 2-[4-Chloro-3-[[(tricyclo[3.3.1.1^3,7]dec-1-ylmethyl)amino]carbonyl]phenyl]-4-oxazolecarboxylic acid], the melting point is reported as 254 to 257 °C. In the case of `O=C(O)Cc1ccccc1-c1ccc(Cl)c(C(=O)NCC23CC4CC(CC(C4)C2)C3)c1` [Example 37, 4′-Chloro-3′-[[(tricyclo[3.3.1.1^3,7]dec-1-ylmethyl)amino]carbonyl]-[1,1′-biphenyl]-2-acetic acid], the melting point is reported as 200 to 202 °C. Compound `CS(=O)(=O)Nc1cccc(-c2ccc(Cl)c(C(=O)NCC34CC5CC(CC(C5)C3)C4)c2)n1` [Example 27, 2-Chloro-5-[6-[(methylsulfonyl)amino]-2-pyridinyl]-N-(tricyclo[3.3.1.1^3,7]dec-1-ylmethyl)-benzamide] has a melting point of 115 to 120 °C. Work on `O=C(NCC12CC3CC(CC(C3)C1)C2)c1cc(-c2ccc(Cl)cc2C(=O)O)ccc1Cl` [Example 42, 4,4′-Dichloro-3′-[[(tricyclo[3.3.1.1^3,7]dec-1-ylmethyl)amino]carbonyl]-[1,1′-biphenyl]-2-carboxylic acid] yielded a melting point of 207 to 210 °C. For `O=C(NCC12CC3CC(CC(C3)C1)C2)c1cc(-c2nccnc2N2CCC(C(=O)O)CC2)ccc1Cl` [Example 34, 1-[3-[4-Chloro-3-[[(tricyclo[3.3.1.1^3,7]dec-1-ylmethyl)amino]carbonyl]phenyl]pyrazinyl]-4-piperidinecarboxylic acid], the melting point was 136 to 140 °C. Work on `C[C@H](Oc1cccc(-c2ccc(Cl)c(C(=O)NCC34CC5CC(CC(C5)C3)C4)c2)c1)C(=O)O` [Example 41, (2S)-2-[[4′-Chloro-3′-[[(tricyclo[3.3.1.1^3,7]dec-1-ylmethyl)amino]carbonyl][1,1′-biphenyl]-3-yl]oxy]-propanoic acid] yielded a melting point of 115 to 120 °C. In the case of `O=C(O)CCOc1ccccc1-c1ccc(Cl)c(C(=O)NCC23CC4CC(CC(C4)C2)C3)c1` [Example 16, 3-[[4′-Chloro-3′-[[(tricyclo[3.3.1.1^3,7]dec-1-ylmethyl)amino]carbonyl][1,1′-biphenyl]-2-yl]oxy]-propanoic acid], the melting point is reported as 163 to 164 °C. With `Cn1cc(-c2ccc(Cl)c(C(=O)NCC34CC5CC(CC(C5)C3)C4)c2)c(C(=O)O)n1` [Example 31, 4-[4-Chloro-3-[[(tricyclo[3.3.1.1^3,7]dec-1-ylmethyl)amino]carbonyl]phenyl]-1-methyl-1H-pyrazole-3-carboxylic acid] the melting point was 166 to 175 °C (dec.). `O=C(O)c1cccc(-c2cc(C(=O)NCC34CC5CC(CC(C5)C3)C4)c(Cl)cn2)c1` [Example 7, 3-[5-Chloro-4-[[(tricyclo [3.3.1.1^3,7]dec-1-ylmethyl)amino]carbonyl]-2-pyridinyl]-benzoic acid] showed a melting point of 200 to 202 °C. With `O=C(O)CNc1cccnc1-c1ccc(Cl)c(C(=O)NCC23CC4CC(CC(C4)C2)C3)c1` [Example 47, N-[2-[4-Chloro-3-[[(tricyclo[3.3.1.1^3,7]dec-1-ylmethyl)amino]carbonyl]phenyl]-3-pyridinyl]-glycine] the melting point was 190 to 194 °C. With `N#CNc1cncc(-c2ccc(Cl)c(C(=O)NCC34CC5CC(CC(C5)C3)C4)c2)n1` [Example 4, 2-Chloro-5-[6-(cyanoamino)pyrazinyl]-N-(tricyclo[3.3.1.1^3,7]dec-1-ylmethyl)-benzamide] the melting point was 215 to 220 °C (dec.). Compound `CN(CCO)c1nc(-c2ccc(Cl)c(C(=O)NCC34CC5CC(CC(C5)C3)C4)c2)ccc1C(=O)O` [Example 54, 6-[4-Chloro-3-[[(tricyclo[3.3.1.1^3,7]dec-1-ylmethyl)amino]carbonyl]phenyl]-2-[(2-hydroxyethyl)methylamino]-3-pyridinecarboxylic acid] has a melting point of 121 to 124 °C.
